ChEMBL document CHEMBL4507282, “Data for DCP probe BI-1950” (2021)

What was measured:
[1] = target: Sodium-dependent serotonin transporter (Homo sapiens) (UniProt P31645); assay: 5HTTRANS/HU Eurofins-Panlabs selectivity data (BI); settings: Compound concentration 10.0 uM
[2] = target: GABA-A receptor; anion channel (Rattus norvegicus) (UniProt O09028+P15431+P18506+P18508+P19969+P20236+P23574+P23576+P28471+P28473+P30191+P62813+P63079+P63138+Q91ZM7+Q9ES14); settings: Compound concentration 10.0 uM
[3] = target: Serotonin 1 (5-HT1) receptor (Rattus norvegicus) (UniProt P28564+P30940+P19327+P28565); assay: 5HT1/R Eurofins-Panlabs selectivity data (BI); assay type: protein assay; settings: Compound concentration 10.0 uM
[4] = target: Muscarinic acetylcholine receptor (Rattus norvegicus) (UniProt P08482+P08483+P08485+P08911+P10980); assay: MUSCARIN/NS Eurofins-Panlabs selectivity data (BI); assay type: protein assay; settings: Compound concentration 10.0 uM
[5] = target: Adrenergic receptor alpha-1 (Rattus norvegicus) (UniProt P15823+P23944+P43140); assay: ALPHA1/R Eurofins-Panlabs selectivity data (BI); assay type: protein assay; settings: Compound concentration 10.0 uM
[6] = target: Gamma-aminobutyric acid receptor subunit alpha-1 (Rattus norvegicus) (UniProt P62813); assay: GABAA MUSCIMOL CENT Eurofins-Panlabs selectivity data (BI); settings: Compound concentration 10.0 uM
[7] = target: Carbonic anhydrase 6 (Homo sapiens) (UniProt P23280); assay: CANHYDRASE Eurofins-Panlabs selectivity data (BI); settings: Compound concentration 10.0 uM
[8] = target: Gamma-aminobutyric acid receptor subunit alpha-1 (Rattus norvegicus) (UniProt P62813); assay: GABAACL+ Eurofins-Panlabs selectivity data (BI); settings: Compound concentration 10.0 uM
[9] = target: Sodium channel regulatory subunit beta-1 (Rattus norvegicus) (UniProt Q00954); assay: NA+/SITE2/RA Eurofins-Panlabs selectivity data (BI)
[10] = target: Amine oxidase [flavin-containing] A (MAO-A) (Homo sapiens, UniProt P21397); assay: MAOA Eurofins-Panlabs selectivity data (BI); design: mode of action inhibitor; settings: compound concentration 10 uM, read-out: % Ctrl
[11] = target: Sodium-dependent noradrenaline transporter (Homo sapiens) (UniProt P23975); assay: NETRANS/H Eurofins-Panlabs selectivity data (BI); settings: Compound concentration 10.0 uM
[12] = target: D(1A) dopamine receptor (Homo sapiens) (UniProt P21728); assay: D1/HU Eurofins-Panlabs selectivity data (BI); settings: Compound concentration 10.0 uM
[13] = target: Vasopressin V2 receptor (Homo sapiens) (UniProt P30518); assay: VASOPRE_V2 Eurofins-Panlabs selectivity data (BI); settings: Compound concentration 10.0 uM
[14] = target: Amine oxidase [flavin-containing] B (MAO-B) (Homo sapiens, UniProt P27338); assay: MAOB Eurofins-Panlabs selectivity data (BI); design: mode of action inhibitor; settings: compound concentration 10 uM, read-out: % Ctrl
[15] = target: 5-hydroxytryptamine receptor 6 (Homo sapiens) (UniProt P50406); assay: 5HT6/HU Eurofins-Panlabs selectivity data (BI); settings: Compound concentration 10.0 uM
Rattus norvegicus = species: Rattus norvegicus; settings: Compound concentration 10.0 uM
[16] = target: 5-hydroxytryptamine receptor 4 (Cavia porcellus) (UniProt O70528); assay: 5HT4/GPIG Eurofins-Panlabs selectivity data (BI); settings: Compound concentration 10.0 uM
Cavia porcellus = species: Cavia porcellus; assay: ATRANS Eurofins-Panlabs selectivity data (BI); settings: Compound concentration 10.0 uM
[17] = target: Sodium-dependent dopamine transporter (Homo sapiens) (UniProt Q01959); assay: DATRANS/H Eurofins-Panlabs selectivity data (BI); settings: Compound concentration 10.0 uM
[18] = target: 5-hydroxytryptamine receptor 5A (Homo sapiens) (UniProt P47898); assay: 5HT5A/HU Eurofins-Panlabs selectivity data (BI); settings: Compound concentration 10.0 uM
[19] = target: Alpha-1D adrenergic receptor (Homo sapiens) (UniProt P25100); settings: Compound concentration 10.0 uM
Alpha-1D adrenergic receptor (Homo sapiens), sequence (P25100 whole entry): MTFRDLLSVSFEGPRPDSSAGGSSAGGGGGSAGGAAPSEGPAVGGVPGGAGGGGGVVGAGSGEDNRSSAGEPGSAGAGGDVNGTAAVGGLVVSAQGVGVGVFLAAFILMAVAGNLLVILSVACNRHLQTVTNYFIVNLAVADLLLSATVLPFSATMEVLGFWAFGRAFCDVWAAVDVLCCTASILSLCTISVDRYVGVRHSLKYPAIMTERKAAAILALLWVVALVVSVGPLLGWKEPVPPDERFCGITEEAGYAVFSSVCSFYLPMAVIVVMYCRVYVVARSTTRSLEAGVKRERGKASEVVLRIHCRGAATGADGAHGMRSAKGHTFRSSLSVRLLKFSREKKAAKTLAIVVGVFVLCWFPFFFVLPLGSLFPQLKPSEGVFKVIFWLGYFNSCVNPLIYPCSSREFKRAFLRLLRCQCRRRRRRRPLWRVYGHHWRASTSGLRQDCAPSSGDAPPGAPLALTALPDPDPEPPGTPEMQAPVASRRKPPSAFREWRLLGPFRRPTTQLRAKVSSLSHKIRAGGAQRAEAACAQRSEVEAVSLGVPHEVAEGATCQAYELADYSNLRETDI

Sodium channel regulatory subunit beta-1 (Rattus norvegicus), sequence (Q00954 whole entry): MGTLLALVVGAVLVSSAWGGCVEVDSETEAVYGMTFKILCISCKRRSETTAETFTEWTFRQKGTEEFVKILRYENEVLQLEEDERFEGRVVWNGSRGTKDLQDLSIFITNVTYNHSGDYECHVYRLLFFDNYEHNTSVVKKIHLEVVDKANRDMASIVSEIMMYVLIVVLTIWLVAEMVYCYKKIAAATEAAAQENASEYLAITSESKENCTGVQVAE
Gamma-aminobutyric acid receptor subunit alpha-1 (Rattus norvegicus), sequence (P62813 whole entry): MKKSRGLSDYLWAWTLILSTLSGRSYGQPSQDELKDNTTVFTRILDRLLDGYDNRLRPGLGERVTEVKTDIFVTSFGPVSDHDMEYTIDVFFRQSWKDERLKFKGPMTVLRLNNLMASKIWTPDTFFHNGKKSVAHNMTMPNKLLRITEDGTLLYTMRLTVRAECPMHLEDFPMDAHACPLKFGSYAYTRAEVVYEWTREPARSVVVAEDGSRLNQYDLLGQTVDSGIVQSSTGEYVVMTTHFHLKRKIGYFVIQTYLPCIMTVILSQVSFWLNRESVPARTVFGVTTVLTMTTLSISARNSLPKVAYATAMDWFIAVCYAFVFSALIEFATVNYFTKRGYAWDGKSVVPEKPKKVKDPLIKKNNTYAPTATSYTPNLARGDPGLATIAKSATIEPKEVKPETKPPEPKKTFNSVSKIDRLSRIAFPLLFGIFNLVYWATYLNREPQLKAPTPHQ
Sodium-dependent noradrenaline transporter (Homo sapiens), sequence (P23975 whole entry): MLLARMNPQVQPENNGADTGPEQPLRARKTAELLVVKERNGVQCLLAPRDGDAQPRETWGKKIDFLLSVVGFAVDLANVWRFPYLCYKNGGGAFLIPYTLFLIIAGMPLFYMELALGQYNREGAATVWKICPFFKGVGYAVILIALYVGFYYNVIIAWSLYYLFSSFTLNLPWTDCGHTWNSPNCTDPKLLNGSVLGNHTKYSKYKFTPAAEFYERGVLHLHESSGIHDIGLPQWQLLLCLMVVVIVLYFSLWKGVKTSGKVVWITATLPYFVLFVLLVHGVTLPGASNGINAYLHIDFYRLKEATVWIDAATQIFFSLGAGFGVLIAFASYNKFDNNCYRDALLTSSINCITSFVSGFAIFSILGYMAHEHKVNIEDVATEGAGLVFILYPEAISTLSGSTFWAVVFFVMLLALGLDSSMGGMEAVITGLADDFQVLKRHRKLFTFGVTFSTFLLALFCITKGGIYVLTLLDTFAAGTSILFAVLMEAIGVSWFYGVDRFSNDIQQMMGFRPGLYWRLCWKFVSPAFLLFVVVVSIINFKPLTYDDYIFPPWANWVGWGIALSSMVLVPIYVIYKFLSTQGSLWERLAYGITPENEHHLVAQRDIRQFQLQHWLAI
Amine oxidase [flavin-containing] A (MAO-A), sequence (P21397 whole entry): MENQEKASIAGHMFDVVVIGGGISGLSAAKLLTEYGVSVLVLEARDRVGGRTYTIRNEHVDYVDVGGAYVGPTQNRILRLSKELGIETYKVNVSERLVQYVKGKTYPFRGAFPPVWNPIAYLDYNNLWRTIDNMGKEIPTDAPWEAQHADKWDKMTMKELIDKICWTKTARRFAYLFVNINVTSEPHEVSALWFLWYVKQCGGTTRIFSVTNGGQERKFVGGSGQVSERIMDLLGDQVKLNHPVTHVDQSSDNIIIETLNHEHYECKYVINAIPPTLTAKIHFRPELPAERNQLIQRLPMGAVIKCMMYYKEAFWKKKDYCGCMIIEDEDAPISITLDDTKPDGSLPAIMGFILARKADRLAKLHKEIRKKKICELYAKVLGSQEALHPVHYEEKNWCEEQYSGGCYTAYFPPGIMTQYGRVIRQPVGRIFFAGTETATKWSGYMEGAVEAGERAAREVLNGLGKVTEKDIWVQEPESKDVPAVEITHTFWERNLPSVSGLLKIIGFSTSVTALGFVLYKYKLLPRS
5-hydroxytryptamine receptor 6 (Homo sapiens), sequence (P50406 whole entry): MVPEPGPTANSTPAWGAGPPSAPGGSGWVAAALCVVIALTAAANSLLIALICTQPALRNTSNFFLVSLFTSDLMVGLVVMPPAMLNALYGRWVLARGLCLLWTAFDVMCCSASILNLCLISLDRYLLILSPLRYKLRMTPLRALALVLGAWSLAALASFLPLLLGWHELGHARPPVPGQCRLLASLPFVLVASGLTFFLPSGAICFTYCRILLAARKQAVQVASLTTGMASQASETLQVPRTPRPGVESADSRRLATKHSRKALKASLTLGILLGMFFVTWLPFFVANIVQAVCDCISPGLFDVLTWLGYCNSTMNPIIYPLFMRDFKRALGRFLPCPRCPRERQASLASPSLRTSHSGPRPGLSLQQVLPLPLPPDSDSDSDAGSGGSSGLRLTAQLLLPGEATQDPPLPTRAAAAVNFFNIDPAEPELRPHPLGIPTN
D(1A) dopamine receptor (Homo sapiens), sequence (P21728 whole entry): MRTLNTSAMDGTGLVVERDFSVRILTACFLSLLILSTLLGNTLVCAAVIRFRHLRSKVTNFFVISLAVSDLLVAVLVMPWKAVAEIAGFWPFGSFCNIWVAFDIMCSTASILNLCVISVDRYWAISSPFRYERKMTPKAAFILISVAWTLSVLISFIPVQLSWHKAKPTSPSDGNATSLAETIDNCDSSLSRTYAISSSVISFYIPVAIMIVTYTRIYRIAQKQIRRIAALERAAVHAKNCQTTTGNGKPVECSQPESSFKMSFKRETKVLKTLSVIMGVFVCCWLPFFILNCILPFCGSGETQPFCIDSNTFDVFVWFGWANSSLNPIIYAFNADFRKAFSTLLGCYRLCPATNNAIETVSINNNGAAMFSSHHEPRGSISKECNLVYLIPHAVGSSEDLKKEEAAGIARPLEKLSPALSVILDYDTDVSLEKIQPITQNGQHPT
Amine oxidase [flavin-containing] B (MAO-B), sequence (P27338 whole entry): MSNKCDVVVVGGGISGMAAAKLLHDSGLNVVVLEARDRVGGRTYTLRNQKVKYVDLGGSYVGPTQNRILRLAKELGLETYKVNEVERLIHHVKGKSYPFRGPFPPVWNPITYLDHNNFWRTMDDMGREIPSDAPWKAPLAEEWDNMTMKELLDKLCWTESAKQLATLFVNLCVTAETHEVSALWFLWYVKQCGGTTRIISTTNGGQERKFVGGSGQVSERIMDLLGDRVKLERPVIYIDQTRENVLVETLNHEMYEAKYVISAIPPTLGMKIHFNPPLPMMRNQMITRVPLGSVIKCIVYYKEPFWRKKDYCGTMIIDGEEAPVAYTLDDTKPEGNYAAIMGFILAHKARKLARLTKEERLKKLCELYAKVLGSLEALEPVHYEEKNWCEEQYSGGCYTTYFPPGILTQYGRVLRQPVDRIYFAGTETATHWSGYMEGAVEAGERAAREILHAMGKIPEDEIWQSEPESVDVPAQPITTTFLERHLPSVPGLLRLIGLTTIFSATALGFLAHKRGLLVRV
Sodium-dependent dopamine transporter (Homo sapiens), sequence (Q01959 whole entry): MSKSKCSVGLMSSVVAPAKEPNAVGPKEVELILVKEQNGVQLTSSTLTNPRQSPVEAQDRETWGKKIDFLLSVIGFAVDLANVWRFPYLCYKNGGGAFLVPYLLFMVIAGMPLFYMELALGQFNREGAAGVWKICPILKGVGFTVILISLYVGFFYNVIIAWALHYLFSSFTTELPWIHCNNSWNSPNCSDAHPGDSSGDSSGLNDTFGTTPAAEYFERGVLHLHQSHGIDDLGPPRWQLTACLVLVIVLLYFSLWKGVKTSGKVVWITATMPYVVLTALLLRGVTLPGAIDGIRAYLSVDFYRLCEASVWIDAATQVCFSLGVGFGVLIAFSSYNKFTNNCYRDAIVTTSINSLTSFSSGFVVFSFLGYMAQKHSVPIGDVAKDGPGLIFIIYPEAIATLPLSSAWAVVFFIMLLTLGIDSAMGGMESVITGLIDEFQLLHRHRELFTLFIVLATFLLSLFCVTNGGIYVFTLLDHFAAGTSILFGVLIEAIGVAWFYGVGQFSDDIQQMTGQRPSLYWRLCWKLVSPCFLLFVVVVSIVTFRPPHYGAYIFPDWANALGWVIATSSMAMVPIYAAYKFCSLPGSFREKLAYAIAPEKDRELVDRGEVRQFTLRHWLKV
5-hydroxytryptamine receptor 5A (Homo sapiens), sequence (P47898 whole entry): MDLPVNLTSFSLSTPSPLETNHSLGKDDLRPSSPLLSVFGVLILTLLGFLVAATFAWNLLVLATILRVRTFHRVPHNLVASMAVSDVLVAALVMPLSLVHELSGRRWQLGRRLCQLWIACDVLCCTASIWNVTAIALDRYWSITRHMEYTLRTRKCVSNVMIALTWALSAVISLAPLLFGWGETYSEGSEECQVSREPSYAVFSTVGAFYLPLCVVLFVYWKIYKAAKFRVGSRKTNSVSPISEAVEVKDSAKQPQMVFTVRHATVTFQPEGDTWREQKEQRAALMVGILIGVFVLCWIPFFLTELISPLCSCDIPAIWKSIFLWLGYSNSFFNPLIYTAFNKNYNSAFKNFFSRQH

C[C@H](NC(=O)c1cnc2n1[C@](C)(Cc1ccc(C#N)cc1)C(=O)N2c1cc(Cl)c(F)c(Cl)c1)C(=O)NC1(c2ccccn2)CC1 [BI 1950]
101% (not active): activity at 10 µM [14]
inactive: residual activity [1] 119% | inhibition [2] 4.9% | residual activity [3] 100% | residual activity [4] 109% | residual activity [5] 102% | residual activity [6] 96% | residual activity [7] 86% | residual activity [8] 73% | residual activity ([9]; Compound concentration 0.03 uM) 103% | residual activity ([9]; Compound concentration 0.1 uM) 86% | residual activity ([9]; Compound concentration 0.3 uM) 84% | residual activity ([9]; Compound concentration 1.0 uM) 75% | residual activity ([9]; Compound concentration 3.0 uM) 67% | residual activity [11] 72% | residual activity [12] 92% | residual activity [13] 85% | residual activity [15] 102% | inhibition (Rattus norvegicus) 13.1% | residual activity [16] 83% | residual activity (Cavia porcellus) 92% | residual activity [17] 67% | residual activity [18] 105%
active: residual activity ([9]; Compound concentration 10.0 uM) 42%
107% (not active): activity at 10 µM [10]

C[C@@]1(Cc2ccc(C#N)cc2)C(=O)N(c2cc(Cl)cc(Cl)c2)c2ncc(C(=O)NC3(c4nc(C5CCC5)no4)CC3)n21 [BI 9446]
inactive: inhibition [19] 8.28%
